Laboratory results reported in patent US20250376466A1, “ESTER COMPOUNDS AND USE THEREOF” (NANJING REJU THERAPEUTICS, CO., LTD., priority 2022, published 2025).

Columns and labels:
[1] = system: wet-age-related macular degeneration (CNV); assay: CNV animal model of wet age-related macular degeneration; assay type: in vivo, mice; conditions: intravitreal (IVT); laser CNV model; FIG. 5
Description: In this example, the efficacy of the compounds of the present disclosure was tested on wet-age-related macular degeneration in a CNV animal model.
Male mice were administered 0.5% probacaine hydrochloride (Alcon) for local anesthesia, and 1% tropicamide to dilate the pupils of the mice. Laser cauterization was performed using a laser photocoagulator (Novus Varia, LUMENIS) with a slit lamp delivery system. And artificially torn adherent glass coverslips were used as contact lenses. Bleeding spots caused by laser were not included in the statistical data.

hypertrophic scars = assay: Rabbit ear hypertrophic scar model; assay type: in vivo, New Zealand white rabbits; conditions: 150 μM, 100 μL injected into lesion once a week, 4 injections, from postoperative Day 14; FIG. 12
Description: In this example, the efficacy of the compounds of the present disclosure was tested on hypertrophic scars in a rabbit ear hypertrophic scar animal model. Briefly, 10 New Zealand white rabbits, male, 3 months old, were used. The New Zealand rabbits were anaesthetized with sodium pentobarbital and six circular full-thickness wounds with a diameter of 10 mm were made on the ventral surface of each ear by removing the epidermis, dermis and perichondrium to expose the cartilage. The rabbits were randomly divided into control and RZ001 experimental groups. On postoperative Day 14, after complete re-epithelialization of the wound surface, the compound (150 μM, 100 μL, dissolved in DMSO solution) or negative control DMSO 100 μL was injected into the center of each lesion from the wound edge once a week for a total of 4 injections. Improvement of scar formation by the compound was assessed by SEI (Scar Excess Index).

diabetic retinopathy = assay: Mouse model of diabetic retinopathy (STZ), Evans blue penetration; assay type: in vivo; conditions: intravitreal (IVT), 1 μL of 200 μM at 8 and 9 weeks after STZ; Evans blue at 10 weeks; FIG. 4
Description: The efficacy of the compounds of the present disclosure was studied in a mouse model of diabetic retinopathy by multiple administrations of streptozotocin (STZ). C57BL/6J mice at 6 to 7 weeks were weighed and their baseline blood glucose was measured (Sino). STZ (Sigma-Aldrich) was injected intraperitoneally into the mice at 55 mg/Kg for five consecutive days. Age-matched controls were injected with buffer only. Blood glucose was measured again one week after the last STZ injection. 1 μL of the test compound (200 μM, a suspension formulated in 0.015% polysorbate 80, 0.2% sodium phosphate, 0.75% sodium chloride, pH 7.2) was injected intravitreally into the STZ-treated diabetic C57BL/6J mice at 8 and 9 weeks after STZ administration. 10 weeks after STZ treatment, the retinal Evans blue penetration assay was performed.

[2] = system: senescent A549 cells, IMR90 cells, RPE cells, mouse chondrocytes, mouse skin fibroblasts; assay: Cell viability of senescent cells (CellTiter-Glo); assay type: cell-based, human; conditions: 1 μM, 72 hours; etoposide (10 μM)-induced senescent cells; FIGS. 2A to 2E
Description: (§1) In this example, human non-small cell lung cancer cell line (A549 cells), human embryonic lung fibroblast cell line (IMR90 cells), human retinal pigment epithelial cells (RPE cells), mouse chondrocytes, and mouse skin fibroblasts were selected. The cells above were induced to obtain senescent cells by etoposide (10 μM). The effect of the target compounds RZ001-RZ006 and RZ201 on the viability of normal and senescent cells above was detected, thereby evaluating the specific killing effect of the prodrugs RZ001-RZ006 and RZ201 on senescent cells above.
(§2) Briefly, senescent and normal cells above were selected and plated separately (96-well plates). After adding the compounds RZ001-RZ006 and RZ201 (concentration: 1 μM) for 72 hours, CellTiter-Glo® Luminescent Cell Viability Assay Kit (Promega) was used to detect cell viability, and the results were shown in FIGS. 2A to 2E.

[3] = system: normal A549 cells, IMR90 cells, RPE cells, mouse chondrocytes, mouse skin fibroblasts; assay: Cell viability of normal cells (CellTiter-Glo); assay type: cell-based, human; conditions: 1 μM, 72 hours, FIGS. 2A to 2E
Description: as §1, §2

[4] = system: oxygen-induced retinopathy (OIR); assay: Mouse model of oxygen-induced retinopathy (OIR); assay type: in vivo; conditions: intravitreal (IVT), 1 μl of 200 μM at P12, retinas at P17, IB4 staining; FIG. 3
Description: The efficacy of the prodrugs RZ001-RZ006 as well as RZ201 were investigated in a mouse model of oxygen-induced retinopathy (OIR) which to some extent indicates an in vivo model of retinopathy of prematurity (ROP), diabetic retinopathy, and wet age-related macular degeneration. From postnatal Day 7 (P7) to Day 12 (P12), C57Bl/6 mouse pups and their CD1 foster mothers were exposed to hyperoxia (75% O2). At P12, the animals were injected intravitreally with 1 μl of the test composition formulated in 1% DMSO, 10% Tween 80, and 20% PEG-400 (200 μM the compound) and returned to room air until Day 17 (P17). On P17, the eyeballs were enucleated and the retinas were dissected for vascular staining. To determine the area of avascularity or angiogenesis, the retinas were flattened and stained with isolectin B4 (IB4).

Cc1c(-c2ccc(N3CCc4cccc(C(=O)Nc5nc6ccccc6s5)c4C3)nc2C(=O)OCOC(=O)C(C)C)cnn1CC12CC3CC(CC(C3)C1)C2 [RZ001]
fluorescence intensity indicators [1]: statistically significant improvements
scar excess index (SEI) (hypertrophic scars): statistically significant improvement
vascular permeability in both the retinal and choroidal vascular leakage (diabetic retinopathy): improved vascular permeability

Cc1oc(=O)oc1COC(=O)c1nc(N2CCc3cccc(C(=O)Nc4nc5ccccc5s4)c3C2)ccc1-c1cnn(CC23CC4CC(CC(C4)C2)C3)c1C [RZ201]
cytotoxicity against senescent cells (cell viability) [2]: cytotoxicity primarily against senescent cells
cytotoxicity against normal cells (cell viability) [3]: without significant killing effects on normal cells
angiogenesis [4]: statistically significant improvements
avascular zone [4]: statistically significant improvements
fluorescence intensity indicators [1]: statistically significant improvements
vascular permeability in both the retinal and choroidal vascular leakage (diabetic retinopathy): improved vascular permeability
